Here are results for 21 molecules from ChEMBL document CHEMBL1255193, “Structure-based optimization of pyrazolo-pyrimidine and -pyridine inhibitors of PI3-kinase” (Bioorg Med Chem Lett, 2010).

SMILES strings stand for the structures. Values after ≈ are worked out from the molar mass of the structure shown.

In data set [1] the target is Phosphatidylinositol 4,5-bisphosphate 3-kinase catalytic subunit alpha isoform (Homo sapiens, UniProt P42336). Nature of the data set: Inhibition of PI3Kalpha.
A short description of data set [2]: Plasma clearance in rat. The data set is classed as ADME, organism-based.
Data set [3] can be described thus: Solubility of the compound at pH 6.5. The data set is classed as physicochemical. The settings on record: buffer.
Data set [4] is described as follows: Apparent permeability of the compound from apical to basolateral direction in MDCKI cells. The data set is classed as ADME, cell-based, Canis lupus familiaris. The settings on record: dog, MDCK.
The subject of the next data set is MDR1. Nature of the data set: Apparent permeability of the compound from apical to basolateral direction in MDCKI cells expressing MDR1. The class given is ADME, cell-based, Canis lupus familiaris. The settings on record: dog, MDCK-MDR1.
Data set [5] relates to Bcrp1. Nature of the data set: Apparent permeability of the compound from apical to basolateral direction in MDCK2 cells expressing Bcrp1. The settings on record: dog. The class given is ADME, cell-based, Canis lupus familiaris, MDCK-II.
Data set [6] can be described thus: Ratio of permeability from basolateral to apical over apical to basolateral side in MDCKI cells. The settings on record: dog.
Data set [7] is described as follows: Ratio of permeability from basolateral to apical over apical to basolateral side in MDCKI cells expressing MDR1. The settings on record: dog.
Data set [8] in a line: Ratio of permeability from basolateral to apical over apical to basolateral side in MDCK2 cells expressing Bcrp1. The settings on record: dog, mdck-ii.
Data set [9] is described as follows: Oral bioavailability in rat at 5 mg/kg. The data set is classed as ADME, organism-based. The settings on record: in vivo.
The test system of the next data set is MCF7. Nature of the data set: Cytotoxicity against human MCF7 cells. The class given is functional, cell-based.
The target of data set [10] is Receptor-type tyrosine-protein kinase FLT3 (Homo sapiens) (UniProt P36888). Nature of the data set: Inhibition of FLT3 at 1 uM.
Receptor-type tyrosine-protein kinase FLT3 (Homo sapiens), sequence (P36888 whole entry): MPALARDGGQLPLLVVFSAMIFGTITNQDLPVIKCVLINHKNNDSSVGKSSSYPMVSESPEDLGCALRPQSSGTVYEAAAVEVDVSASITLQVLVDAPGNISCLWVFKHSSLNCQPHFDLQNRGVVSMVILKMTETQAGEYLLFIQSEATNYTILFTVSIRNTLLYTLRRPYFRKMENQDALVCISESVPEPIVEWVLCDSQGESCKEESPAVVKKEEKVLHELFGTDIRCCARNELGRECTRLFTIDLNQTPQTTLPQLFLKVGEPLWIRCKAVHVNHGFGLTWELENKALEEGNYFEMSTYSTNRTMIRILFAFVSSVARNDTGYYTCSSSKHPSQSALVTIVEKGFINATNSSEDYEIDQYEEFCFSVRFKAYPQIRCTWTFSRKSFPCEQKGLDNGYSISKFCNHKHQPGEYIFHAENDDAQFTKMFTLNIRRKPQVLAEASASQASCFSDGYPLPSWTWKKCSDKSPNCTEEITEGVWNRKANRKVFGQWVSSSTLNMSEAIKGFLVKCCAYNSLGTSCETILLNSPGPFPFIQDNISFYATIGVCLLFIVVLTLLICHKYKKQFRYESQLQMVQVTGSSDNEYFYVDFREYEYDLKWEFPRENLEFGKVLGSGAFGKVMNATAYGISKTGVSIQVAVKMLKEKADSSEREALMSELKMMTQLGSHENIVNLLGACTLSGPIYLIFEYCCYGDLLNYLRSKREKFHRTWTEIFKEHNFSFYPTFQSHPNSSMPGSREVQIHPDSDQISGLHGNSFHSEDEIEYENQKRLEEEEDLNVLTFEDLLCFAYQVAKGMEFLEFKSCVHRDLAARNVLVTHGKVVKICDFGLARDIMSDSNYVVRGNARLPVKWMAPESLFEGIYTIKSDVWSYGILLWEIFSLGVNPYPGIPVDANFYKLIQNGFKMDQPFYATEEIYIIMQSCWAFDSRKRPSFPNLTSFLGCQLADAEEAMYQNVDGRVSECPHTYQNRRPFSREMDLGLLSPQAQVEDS
A short description of data set [11]: Plasma protein binding in mouse. The class given is ADME, cell-free. The settings on record: read-out: PPB (converted).
Data set [12] relates to Mus musculus. Description: In vivo inhibition of PI3K in human PC3 cells xenografted athymic nude mouse assessed as reduction of phosphorylated Akt level at 50 mg/kg, po after 1 hr. The data set is classed as functional. The settings on record: PC-3, 1 h. In general terms: In xenograft studies the graft and the host belong to different species.
Data set [13] has as its system Mus musculus. Nature of the data set: In vivo inhibition of PI3K in human PC3 cells xenografted athymic nude mouse assessed as reduction of phosphorylated Akt level at 50 mg/kg, po after 6 hrs. The data set is classed as functional. The settings on record: PC-3, 6 h.
Data set [14] concerns Mus musculus. Nature of the data set: In vivo inhibition of PI3K in human PC3 cells xenografted athymic nude mouse assessed as reduction of phosphorylated PRAS40 level at 50 mg/kg, po after 1 hr. The settings on record: PC-3, 1 h. The class given is functional.
Data set [15] has as its system Mus musculus. Description: In vivo inhibition of PI3K in human PC3 cells xenografted athymic nude mouse assessed as reduction of phosphorylated PRAS40 level at 50 mg/kg, po after 6 hrs. The class given is functional. The settings on record: PC-3, 6 h.
In data set [16] the test system is Mus musculus. Description: In vivo inhibition of PI3K in human PC3 cells xenografted athymic nude mouse assessed as reduction of phosphorylated S6RP level at 50 mg/kg, po after 1 hr. The class given is functional. The settings on record: PC-3, 1 h.
Data set [17] relates to Mus musculus. Description: In vivo inhibition of PI3K in human PC3 cells xenografted athymic nude mouse assessed as reduction of phosphorylated S6RP level at 50 mg/kg, po after 6 hrs. The data set is classed as functional. The settings on record: PC-3, 6 h.
In data set [18] the target is DNA-dependent protein kinase catalytic subunit (Homo sapiens, UniProt P78527). Nature of the data set: Inhibition of DNA-PK.
For data set [19], the target named is Serine/threonine-protein kinase mTOR (Homo sapiens, UniProt P42345). Description: Inhibition of mTOR. The settings on record: read-out: Ki(app).
Data set [20] in a line: Plasma clearance in human PC3 cells xenografted athymic nude mouse. The data set is classed as ADME, organism-based, PC-3.
Data set [21] can be described thus: Oral bioavailability in human PC3 cells xenografted athymic nude mouse at 5 mg/kg. The data set is classed as ADME, organism-based, PC-3. The settings on record: in vivo.
The nature of data set [22]: Volume of distribution at steady state in human PC3 cells xenografted athymic nude mouse. The settings on record: in vivo, read-out: Vdss. The data set is classed as ADME, organism-based, PC-3.
Data set [23] is described as follows: Inhibition of human Cytochrome P450. The class given is ADME.
The nature of data set [24]: Metabolic stability in human hepatocytes assessed as compound remaining after 3 hrs. The class given is ADME, cell-based, Hepatocyte. The settings on record: read-out: Stability.
The nature of data set [25]: Metabolic stability in mouse hepatocytes assessed as compound remaining after 3 hrs. The class given is ADME, cell-based, Hepatocyte. The settings on record: read-out: Stability.
The subject of data set [26] is Bcrp1. Description: Apparent permeability of the compound from apical to basolateral direction in MDCK2 cells expressing Bcrp1 in presence of fumitremorgin C. The settings on record: dog, with fumitremorgin C. The class given is ADME, cell-based, Canis lupus familiaris, MDCK-II.
Data set [27] can be described thus: Ratio of permeability from […] side in MDCK2 cells expressing Bcrp1 in presence of fumitremorgin C. The class given is ADME, cell-based, Canis lupus familiaris. The settings on record: dog, mdck-ii.

Phosphatidylinositol 4,5-bisphosphate 3-kinase catalytic subunit alpha isoform, sequence (P42336 whole entry, canonical isoform): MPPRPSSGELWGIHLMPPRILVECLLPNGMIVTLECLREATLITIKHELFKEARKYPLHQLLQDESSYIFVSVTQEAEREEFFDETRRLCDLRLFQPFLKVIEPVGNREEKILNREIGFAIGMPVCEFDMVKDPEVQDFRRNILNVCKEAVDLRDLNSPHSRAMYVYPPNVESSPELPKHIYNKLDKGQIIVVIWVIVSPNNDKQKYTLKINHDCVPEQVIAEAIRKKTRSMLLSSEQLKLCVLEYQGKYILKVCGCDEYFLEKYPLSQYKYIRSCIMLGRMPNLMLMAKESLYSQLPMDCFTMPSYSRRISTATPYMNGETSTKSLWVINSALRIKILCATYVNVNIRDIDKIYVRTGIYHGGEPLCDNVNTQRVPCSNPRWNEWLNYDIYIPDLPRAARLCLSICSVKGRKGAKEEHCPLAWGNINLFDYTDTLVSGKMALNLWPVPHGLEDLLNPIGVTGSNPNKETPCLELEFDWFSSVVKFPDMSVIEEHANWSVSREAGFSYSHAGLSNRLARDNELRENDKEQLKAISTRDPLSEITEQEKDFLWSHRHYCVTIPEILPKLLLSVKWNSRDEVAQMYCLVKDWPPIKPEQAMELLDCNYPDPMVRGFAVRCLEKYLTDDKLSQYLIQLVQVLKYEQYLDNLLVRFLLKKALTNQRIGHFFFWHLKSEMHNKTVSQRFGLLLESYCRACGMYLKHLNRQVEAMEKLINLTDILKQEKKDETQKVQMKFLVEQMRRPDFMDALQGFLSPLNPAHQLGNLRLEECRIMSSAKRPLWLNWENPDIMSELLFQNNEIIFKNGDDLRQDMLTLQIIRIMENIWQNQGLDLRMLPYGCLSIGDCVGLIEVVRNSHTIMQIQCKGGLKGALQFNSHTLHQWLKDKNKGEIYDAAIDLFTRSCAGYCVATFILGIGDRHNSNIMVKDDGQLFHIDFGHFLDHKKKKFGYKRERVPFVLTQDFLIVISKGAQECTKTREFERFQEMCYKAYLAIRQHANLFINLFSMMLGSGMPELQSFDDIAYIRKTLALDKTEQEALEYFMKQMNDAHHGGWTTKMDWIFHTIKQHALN

`COc1cccc(Nc2nc(-c3cccc(OC)c3)nc3c2cnn3C)c1` registered an IC50 in data set [1] of 0.134 µM.

In turn, `COc1cccc(Nc2nc(-c3cccc(S(C)(=O)=O)c3)nc3c2cnn3C)c1` had an IC50 in data set [1] of 0.056 µM.

Molecule `Cn1ncc2c(NCC(C)(C)CO)nc(-c3cccc4[nH]ncc34)nc21` displayed an IC50 in data set [1] of 0.0011 µM. In addition, the clearance in data set [2] is 103 mL/min/kg.

In [1], `COc1cccc(Nc2nc(-c3cccnc3)nc3c2cnn3C)c1` had a concentration for half-maximal inhibition (IC50) of 0.029 µM.

In the case of `Cn1ncc2c(-c3ccc(S(C)(=O)=O)cc3)nc(-c3cccc4[nH]ncc34)nc21`, the IC50 in data set [1] came to 0.0049 µM. In data set [3], this molecule had a solubility of less than 1 µg/mL. Also, the Papp A→B in [4] stood at 31.5 ×10⁻⁶ cm/s; with MDR1, 7.6 ×10⁻⁶ cm/s; in the data set with Bcrp1 [5] it was 3.8 ×10⁻⁶ cm/s. For the same molecule, the Ratio in data set [6] came out at 0.5; in data set [7] it was 3.2; in data set [8], 4.8.

The molecule `COc1cccc(Nc2nc(-c3cccc4onc(C)c34)nc3c2cnn3C)c1` returned an IC50 in data set [1] of 0.0017 µM.

Molecule `CNC(=O)c1cccc(-c2nc(Nc3cccc(OC)c3)c3cnn(C)c3n2)c1` returned an IC50 in data set [1] of 3.64 µM. Compared with the last molecule, the IC50 is about 2100-fold higher.

The molecule `COc1cccc(Nc2nc(-c3cccc(NC(C)=O)c3)nc3c2cnn3C)c1` came in with a 50% inhibitory concentration (IC50) in data set [1] of 0.386 µM.

Molecule `COc1cccc(Nc2nc(N3CCCCC3)nc3c2cnn3C)c1` registered an IC50 in [1] of 0.359 µM.

For `COc1cccc(Nc2nc(-c3cnc(N)nc3)nc3c2cnn3C)c1`, the IC50 in [1] came out at 0.016 µM.

Turning to `Cn1ncc2c(Oc3ccc(S(C)(=O)=O)cc3)nc(-c3cccc4[nH]ncc34)nc21`, it took 0.003 µM to reach half-maximal inhibition in data set [1] (IC50). For the same molecule, the clearance in data set [2] came to 2 mL/min/kg. The same molecule gave a solubility in data set [3] of 16 µg/mL (≈ 38.1 µM). Moreover, the Papp A→B in data set [4] is 2.5 ×10⁻⁶ cm/s; in the data set on MDR1, 0.8 ×10⁻⁶ cm/s; with Bcrp1 [5], 0.05 ×10⁻⁶ cm/s. For the same molecule, the bioavailability in [9] stood at 29%. In addition, the Ratio in data set [6] came out at 0.7; in data set [7], 4.2; in data set [8], 55.1.

In [1], `CN1CCC(Nc2nc(-c3cccc4[nH]ncc34)nc3c2cnn3C)CC1` had an IC50 of 0.0083 µM. This molecule showed a 50% effective concentration (EC50) with MCF7 of 1.5 µM. This molecule registered a clearance in data set [2] of 176 mL/min/kg.

Regarding `Cn1ncc2c(NCCCS(C)(=O)=O)nc(-c3cccc4n[nH]cc34)nc21`, the EC50 in the data set with MCF7 turned out to be 0.403 µM. Moreover, in data set [2], the clearance is 139 mL/min/kg.

With `COc1cccc(Nc2nc(-c3cccc(C(N)=O)c3)nc3c2cnn3C)c1`, in data set [1], the IC50 was 0.072 µM.

As to `COc1cccc(Nc2nc(-c3cccc4[nH]nc(N)c34)nc3c2cnn3C)c1`, in [1], inhibition was half-maximal at 0.011 µM (IC50).

As for `COc1cccc(Nc2nc(N3CCC(O)CC3)nc3c2cnn3C)c1`, the IC50 in [1] was determined as 0.43 µM.

`COc1cccc(Nc2nc(N3CCOCC3)nc3c2cnn3C)c1` displayed an IC50 in data set [1] of 0.162 µM.

In turn, `COc1cccc(Nc2nc(N3CC(C)OC(C)C3)nc3c2cnn3C)c1` (stereo not drawn) showed an IC50 in data set [1] of 0.37 µM.

Consider `Cn1ncc2c(Oc3ccc(S(C)(=O)=O)cc3)cc(-c3cccc4[nH]ncc34)nc21`, for which the clearance in data set [2] turned out to be 8.4 mL/min/kg; in data set [20], 12.7 mL/min/kg. Further, the concentration in solution in data set [3] (solubility) came to 15 µg/mL (≈ 35.8 µM). The Papp A→B came out at 13.9 ×10⁻⁶ cm/s in data set [4] and 1.2 ×10⁻⁶ cm/s with MDR1. In addition, the bioavailability in [9] came out at 107%; in [21] it was 110%. Also, the inhibition in data set [10] is 27%. The fraction unbound in data set [11] was 0.012. The inhibition in vivo at 50 mg/kg in the data set on Mus musculus [12] turned out to be 44%; in the data set on Mus musculus [13] it was 34%; in the data set on Mus musculus [14], 23%; with Mus musculus [15] it was 11%; in the data set on Mus musculus [16], 36%; in the data set with Mus musculus [17], 17%. Also, the values for the IC50 in [18] and in [23] were 1.02 µM and greater than 20 µM, respectively. Further, the Ki in data set [19] was greater than 10 µM. In addition, in data set [22], the Vd stood at 1.1 L/kg. In addition, the remaining at 3 h worked out at 94% in data set [24] and 100% in data set [25].

Molecule `Cn1ncc2c(Nc3ccc(S(C)(=O)=O)cc3)nc(-c3cccc4[nH]ncc34)nc21` yielded an IC50 in [1] of 0.0014 µM. The EC50 in the data set on MCF7 turned out to be 0.087 µM. The clearance in data set [2] came out at 20 mL/min/kg. The solubility in [3] was found to be 7.1 µg/mL (≈ 16.9 µM). In addition, the Papp A→B was 0.37 ×10⁻⁶ cm/s in data set [4], 0.13 ×10⁻⁶ cm/s in the data set with MDR1, 0.03 ×10⁻⁶ cm/s with Bcrp1 [5] and 0.63 ×10⁻⁶ cm/s in the data set on Bcrp1 [26]. Moreover, the bioavailability in data set [9] stood at 0%. Also, the Ratio turned out to be 17.6 in data set [27], 6.7 in data set [6], 79 in data set [7] and 311 in [8].

Regarding `COc1cccc(Nc2nc(-c3cccc4[nH]ncc34)nc3c2cnn3C)c1`, half-maximal inhibition in data set [1] (IC50) required 0.0014 µM.

One may read the IC50 as the concentration that gives 50% inhibition. By clearance is commonly meant a measure of how efficiently the substance is removed, as volume per time. A lower clearance goes with a low capacity for elimination. One may read the solubility as the concentration that dissolves in the medium under given conditions. Read a low solubility as a poorly soluble substance. In general, Papp A→B refers to the apparent permeability from the apical to the basolateral side of a cell layer. What is called EC50 is the concentration that produces a half-maximal response. Lower therefore signals an effect from little substance. In general, inhibition refers to the percentage by which the read-out fell short of the control. Higher therefore signals a strong effect. As a reminder, the inhibition in vivo is the share of the control response that was lost under treatment.
